According to patent US10071109B2, “Predictive biomarker for hypoxia-activated prodrug therapy” (Molecular Templates, Inc., priority 2013, dated 2018):

Assays:
[1] = system: LU1304 NSCLC PDX xenograft model; assay: TH-302 efficacy in LU1304 NSCLC PDX xenograft model; assay type: in vivo, mice
Description: (§1) A series of tumor xenograft experiments was initiated. In these gall bladder and NSCLC tumor experiments, patient-derived tumor xenograft (PDX) models were selected since these models more accurately mimic the histology and genetics of actual human tumors as compared with the cell line derived models. More specifically, the original tumor sources for these human tumor xenograft models were patient-derived (PDX) gall bladder and lung carcinomas that have been maintained subcutaneously in nude mice for >3 passages. When grown to 500-700 mm^3, the tumors were harvested for inoculation by selecting and slicing (into 3×3×3 mm^3 fragments) well grown portions of tumors. These tumor fragments were implanted subcutaneously in the right flank of athymic nu/nu mice (female, 6-8 weeks old (18-20 g)) for the efficacy experiments. All of the procedures for tumor harvesting, inoculation, animal dosing, and tumor and body weight measurement were conducted in a sterile hoods.
(§2) For the efficacy studies, when the average tumor size reached 100-200 mm^3, mice were randomly grouped into vehicle and TH-302 treatment groups. Each group contained 8-10 mice. […] Tumor volumes were measured twice weekly.
(§3) %ΔT/ΔC was calculated with the formula below: %ΔT/ΔC=((TVf−TVi)/(TVfCtrl−TViCtrl))×100% where TV=tumor volume, f=final, I=initial, and Ctrl=control group. […]

[2] = system: LU0357 NSCLC PDX xenograft model; assay: TH-302 efficacy in LU0357 NSCLC PDX xenograft model; assay type: in vivo, mice
Description: as §1, §2, §3

[3] = system: panel of 11 cancer cell-line derived models; details: previous tumor xenograft studies; cited from earlier work
[4] = system: LU1245 NSCLC PDX xenograft model; assay: TH-302 efficacy in LU1245 NSCLC PDX xenograft model; assay type: in vivo, mice
Description: as §1
(§4) For the efficacy studies, when the average tumor size reached 100-200 mm^3, mice were randomly grouped into vehicle and TH-302 treatment groups. Each group contained 8-10 mice. Since the tumor volume could affect the effectiveness of any given treatment, a randomized block design was used in the group assignment based upon their tumor volumes. […] After randomization, mice were treated with either vehicle or TH-302 i.p. 60 mg/kg twice per week (Q2W) for approximately 5-8 weeks based on tumor grow rate and response. The precise dosing periods are described in the legends of FIGS. 1 and 2 above. Tumor volumes were measured twice weekly.
(§5) %ΔT/ΔC was calculated with the formula below: %ΔT/ΔC=((TVf−TVi)/(TVfCtrl−TViCtrl))×100% where TV=tumor volume, f=final, I=initial, and Ctrl=control group.
(§6) If tumor regression was observed: %ΔT/ΔC=(TVf−TVi)/TVi)×100%=% Regression=(1−(TVf/TVi))×100% where TV=tumor volume, f=final, I=initial, and Ctrl=control group. […]

[5] = system: LU1380 NSCLC PDX xenograft model; assay: TH-302 efficacy in LU1380 NSCLC PDX xenograft model; assay type: in vivo, mice
Description: as §1, §2, §3

[6] = system: GL0608 gall bladder cancer PDX xenograft model; assay: TH-302 efficacy in GL0608 gall bladder cancer PDX xenograft model; assay type: in vivo, mice
Description: as §1, §4, §5, §6

[7] = system: LU1235 NSCLC PDX xenograft model; assay: TH-302 efficacy in LU1235 NSCLC PDX xenograft model; assay type: in vivo, mice
Description: as §1, §2, §3

[8] = Body weights of mice treated with TH-302 in PDX xenograft studies; assay type: in vivo; details: 60 mg/kg i.p. Q2W, data not shown
Description: as §1
For the efficacy studies, when the average tumor size reached 100-200 mm^3, mice were randomly grouped into vehicle and TH-302 treatment groups. Each group contained 8-10 mice. Since the tumor volume could affect the effectiveness of any given treatment, a randomized block design was used in the group assignment based upon their tumor volumes. […] Tumor volumes were measured twice weekly.

[9] = system: GL1208 gall bladder cancer PDX xenograft model; assay: TH-302 efficacy in GL1208 gall bladder cancer PDX xenograft model; assay type: in vivo, mice
Description: as §1, §2, §3

[10] = system: LU2505 NSCLC PDX xenograft model; assay: TH-302 efficacy in LU2505 NSCLC PDX xenograft model; assay type: in vivo, mice
Description: as §1, §2, §3

[11] = system: LU0387 NSCLC PDX xenograft model; assay: TH-302 efficacy in LU0387 NSCLC PDX xenograft model; assay type: in vivo, mice
Description: as §1, §2, §3

Cn1c(COP(=O)(NCCBr)NCCBr)cnc1[N+](=O)[O-] [TH-302, (2-bromoethyl)({[(2-bromoethyl)amino][(2-nitro-3-methylimidazol-4-yl)methoxy]phosphoryl})amine]
%ΔT/ΔC (TH-302) ([1]; LU1304, NSCLC EGFR wt, TH-302 60 mg/kg i.p. twice per week (Q2W), approximately 5-8 weeks): 93% | antitumor activity, in words ([1]; LU1304, similar to LU1380): minor level of efficacy | %ΔT/ΔC (TH-302) ([2]; LU0357, NSCLC EGFR mt, TH-302 60 mg/kg i.p. twice per week (Q2W), approximately 5-8 weeks): 93% | antitumor activity, in words ([2]; LU0357, similar to LU1380): minor level of efficacy | monotherapy efficacy (tumor growth delays) [3]: modest | %ΔT/ΔC (TH-302) ([4]; LU1245, NSCLC EGFR wt, TH-302 60 mg/kg i.p. twice per week (Q2W), 49 days): −42% | antitumor activity (tumor growth measurements), in words ([4]; LU1245, 60 mg/kg i.p. Q2W, 49 day dosing period): highly sensitive | mice with a complete response (lack of tumor re-growth following regression) ([4]; LU1245, 60 mg/kg i.p. Q2W, 49 day dosing, at day 73 (14 days post treatment termination)): 5/10 | %ΔT/ΔC (TH-302) ([5]; LU1380, NSCLC EGFR wt, TH-302 60 mg/kg i.p. twice per week (Q2W), 42 days): 86% | antitumor activity (tumor growth measurements), in words ([5]; LU1380, 60 mg/kg i.p. Q2W, after 42 days treatment): minor tumor growth inhibition | %ΔT/ΔC (TH-302) ([6]; GL0608, gall bladder, adenocarcinoma, TH-302 60 mg/kg i.p. twice per week (Q2W), 59 days): −100% | mice with a complete response (lack of tumor re-growth following regression) ([6]; GL0608, 60 mg/kg i.p. Q2W for 59 days, at day 99, final tumor measurement): 10/10 | antitumor activity (tumor growth measurements), in words ([6]; GL0608, 60 mg/kg i.p. Q2W, treatment period 59 days): highly sensitive | %ΔT/ΔC (TH-302) ([7]; LU1235, NSCLC EGFR mt, TH-302 60 mg/kg i.p. twice per week (Q2W), approximately 5-8 weeks): 74% | antitumor activity, in words ([7]; LU1235, similar to LU1380): minor level of efficacy | changes in the body weights of the mice treated with TH-302 ([8]; NSCLC PDX studies (LU1245, LU1380)): No significant changes | changes in the body weights of the mice treated with TH-302 ([8]; gall bladder PDX studies (GL0608, GL1208)): No significant changes | %ΔT/ΔC (TH-302) ([9]; GL1208, gall bladder, adenosquamous, TH-302 60 mg/kg i.p. twice per week (Q2W), 49 days): 62% | antitumor activity (tumor growth measurements), in words ([9]; GL1208, 60 mg/kg i.p. Q2W, after 49 days treatment): minor tumor growth inhibition | %ΔT/ΔC (TH-302) ([10]; LU2505, NSCLC EGFR wt, TH-302 60 mg/kg i.p. twice per week (Q2W), approximately 5-8 weeks): 34% | antitumor activity, in words ([10]; LU2505, similar to LU1380): minor level of efficacy | %ΔT/ΔC (TH-302) ([11]; LU0387, NSCLC EGFR mt, TH-302 60 mg/kg i.p. twice per week (Q2W), approximately 5-8 weeks): 84% | antitumor activity, in words ([11]; LU0387, similar to LU1380): minor level of efficacy
